Experimental data published in paper PMC9088825, “N ^α-arylsulfonyl histamines as selective β-glucosidase inhibitors” (RSC Advances, 2018).
Read-outs that look alike come from different tables or passages of the source. Each block holds one compound with its values, some of them ahead of it.

Tests used:
β-Glc [1] = conditions: cited from earlier work
β-Glc (from almonds) [2] = assay: β-Glc microplate assay (hydrolysis of p-nitrophenyl-β-D-glucopyranoside); assay type: biochemical; conditions: for IC50: microplate assay, β-PNPG substrate, pH 7, 37 °C, read-out: IC50 (β-Glc inhibition)
Method: The final volume in well was 270 μL. The enzymatic reaction was initiated by addition of β-PNPG (1.63 mM end concentration in well). […] For IC50 determination, ten serial dilutions of the compounds were prepared in DMSO, following equally spaced points in […] logarithm scale, starting at 16.2 mM and finishing at 1.7 μM. IC50 was calculated using Prism V5.01 (GraphPad Software Inc., La Jolla, CA, USA) requesting the software a non-linear regression curve fit for a log[Inhibitor] vs. normalized answer model with variable slope.

β-Glc [3] = assay: Kinetic experiments (Lineweaver–Burk, Ki); assay type: biochemical, almonds
Method: Microplate assay was carried on varying substrate concentration between 0.022 and 7.2 mM; as well as the inhibitor concentration was varied between 0.239 and 0.0061 mM. Initial velocities vs. [S] curves were obtained with Michaelis–Menten equation adjustment. After that, Lineweaver–Burk linearization plot and the secondary linearization of Slopes vs. [I] reveled type of inhibition and Ki value respectively. All the data acquired was treated through Prism V5.01 (GraphPad Software Inc.).

xanthine oxidase (XO) = xanthine oxidase (XO) (Bos taurus, UniProt P80457); assay: XO microplate assay (uric acid formation); assay type: biochemical, bovine; conditions: tested at 3 μM
Method: Following the method previously reported by Chu,[45] the formation of uric acid was continuously measured in 96-well microplate. Each well was filled in triplicates with: of 10 μL test compound in DMSO (0.11 μM end concentration in well) and XO (bovine) in 0.2 M buffer phosphate, pH 7.5 (2.81 μU mL^−1, end concentration in well). […] The final volume in well was 270 μL. The enzymatic reaction was initiated by addition of the xanthine substrate (0.04 mM, end concentration in well). The plate was shaken for 2 s and the increase in absorbance at 295 nm was monitored at 30 °C for 20 min.

[4] = molecular target: acetyl cholinesterase (AChE) (Electrophorus electricus, UniProt O42275); assay type: biochemical, electric eel; conditions: tested at 1.5 μM
Method: AChE activity measurement was carried on based on Ellman's method.[46] […] The plate was shaken for 2 s and the increase in absorbance at 405 nm was monitored at 37 °C for 15 min.

β-galactosidase (β-Gal) [5] = molecular target: T1, β-galactosidase (β-Gal) (Kluyveromyces lactis, UniProt P00723); assay: β-Gal microplate assay; assay type: biochemical; conditions: up to 3.500 mM
Method: Similar to the method applied in β-Glc assay, the hydrolysis of o-nitrophenyl-β-O-D-galactopyranoside (β-ONPG) was continuously measured in 96-well microplate. Wells were filled in triplicate with β-Gal (Kluyveromyces lactis) in 50 mM buffer phosphate, pH 7 (7.20 μU mL^−1 final concentration in well) and 10 μL of test compound in dimethylsulfoxide (DMSO) solution (100 μM or 500 μM end concentration in well). The final volume in well was 270 μL. The enzymatic reaction was initiated by addition of β-ONPG (3.23 mM end concentration in well). The plate was shaken for 2 s and the increase in absorbance at 405 nm was monitored at 37 °C for 10 min. For IC50 determination, eighteen serial dilutions of the compounds were prepared in DMSO, following equally spaced points in neperian logarithm scale, starting at 94.50 mM and finishing at 1.44 μM. IC50 was calculated using Prism V5.01 (GraphPad Software Inc., La Jolla, CA, USA) requesting the software a non-linear regression curve fit for a log[Inhibitor] vs. normalized answer model with variable slope.

β-Glc [6] = assay: Jump dilution assay; assay type: biochemical, almonds
Method: After 30 minutes of incubation, the mixture was diluted 100-fold and mixed with the substrate and α-CD to start the reaction. The progress curve of this sample was measured and compared to a sample of enzyme incubated and diluted in the absence of inhibitor. Each incubation and dilution were prepared and measured in triplicate. The percentage of activity recovery was obtained using Prism V5.01 (GraphPad Software Inc.).

β-galactosidase (β-Gal) [7] = molecular target: T1, β-galactosidase (β-Gal); parameters: method as in earlier work; conditions: ref 1 (Kato et al., J. Med. Chem., 2005, 48, 2036-2044); read-out: IC50 (β-Gal), reference inhibitor; cited from earlier work
β-Glc (from almonds) [8] = conditions: cited from earlier work
[9] = binds the active site of β-Glc from almonds, read-out: Ki (β-Glc from almonds)

T1 sequence (P00723 whole entry): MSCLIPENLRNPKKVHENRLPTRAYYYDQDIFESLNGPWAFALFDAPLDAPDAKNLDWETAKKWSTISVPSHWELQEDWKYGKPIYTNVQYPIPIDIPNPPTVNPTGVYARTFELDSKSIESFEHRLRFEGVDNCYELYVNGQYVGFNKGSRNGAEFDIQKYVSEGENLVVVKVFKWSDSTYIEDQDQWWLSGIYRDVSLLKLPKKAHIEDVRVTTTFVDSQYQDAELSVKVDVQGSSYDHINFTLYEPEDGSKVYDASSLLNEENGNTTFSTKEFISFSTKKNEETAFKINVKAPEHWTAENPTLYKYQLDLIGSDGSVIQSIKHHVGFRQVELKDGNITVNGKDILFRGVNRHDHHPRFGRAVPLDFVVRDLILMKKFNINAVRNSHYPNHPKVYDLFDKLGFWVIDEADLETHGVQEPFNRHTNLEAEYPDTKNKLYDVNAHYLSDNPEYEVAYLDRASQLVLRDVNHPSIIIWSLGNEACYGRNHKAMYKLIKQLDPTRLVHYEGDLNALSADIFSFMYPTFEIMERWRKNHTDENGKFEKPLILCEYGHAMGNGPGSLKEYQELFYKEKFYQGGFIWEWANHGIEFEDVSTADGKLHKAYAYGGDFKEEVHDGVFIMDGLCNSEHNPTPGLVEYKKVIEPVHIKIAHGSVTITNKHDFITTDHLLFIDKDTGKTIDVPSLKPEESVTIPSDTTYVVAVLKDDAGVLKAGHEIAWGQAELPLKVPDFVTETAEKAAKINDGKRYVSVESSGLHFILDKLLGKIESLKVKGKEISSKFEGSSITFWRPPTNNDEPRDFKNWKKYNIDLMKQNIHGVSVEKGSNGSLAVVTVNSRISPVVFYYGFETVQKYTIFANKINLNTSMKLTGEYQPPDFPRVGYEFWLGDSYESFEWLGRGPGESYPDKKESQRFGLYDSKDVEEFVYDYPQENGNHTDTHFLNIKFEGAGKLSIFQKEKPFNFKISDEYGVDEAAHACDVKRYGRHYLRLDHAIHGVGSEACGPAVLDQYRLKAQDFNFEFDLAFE
acetyl cholinesterase (AChE), sequence (O42275 24-633): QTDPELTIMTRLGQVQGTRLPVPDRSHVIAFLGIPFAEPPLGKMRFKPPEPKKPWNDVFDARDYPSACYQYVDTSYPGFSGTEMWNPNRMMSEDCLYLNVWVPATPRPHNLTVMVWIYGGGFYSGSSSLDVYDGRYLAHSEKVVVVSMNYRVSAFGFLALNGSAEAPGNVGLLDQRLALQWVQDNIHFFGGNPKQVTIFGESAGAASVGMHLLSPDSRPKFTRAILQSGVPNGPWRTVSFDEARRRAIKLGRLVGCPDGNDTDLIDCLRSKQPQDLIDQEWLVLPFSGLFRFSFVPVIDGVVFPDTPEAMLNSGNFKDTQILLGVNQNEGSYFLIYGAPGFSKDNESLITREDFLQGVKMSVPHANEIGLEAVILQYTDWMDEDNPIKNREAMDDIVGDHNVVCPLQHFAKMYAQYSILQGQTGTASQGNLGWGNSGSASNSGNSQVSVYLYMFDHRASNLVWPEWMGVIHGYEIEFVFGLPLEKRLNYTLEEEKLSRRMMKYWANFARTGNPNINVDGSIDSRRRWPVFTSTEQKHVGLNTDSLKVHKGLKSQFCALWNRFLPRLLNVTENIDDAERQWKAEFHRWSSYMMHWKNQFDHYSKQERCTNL
xanthine oxidase (XO), sequence (P80457 whole entry): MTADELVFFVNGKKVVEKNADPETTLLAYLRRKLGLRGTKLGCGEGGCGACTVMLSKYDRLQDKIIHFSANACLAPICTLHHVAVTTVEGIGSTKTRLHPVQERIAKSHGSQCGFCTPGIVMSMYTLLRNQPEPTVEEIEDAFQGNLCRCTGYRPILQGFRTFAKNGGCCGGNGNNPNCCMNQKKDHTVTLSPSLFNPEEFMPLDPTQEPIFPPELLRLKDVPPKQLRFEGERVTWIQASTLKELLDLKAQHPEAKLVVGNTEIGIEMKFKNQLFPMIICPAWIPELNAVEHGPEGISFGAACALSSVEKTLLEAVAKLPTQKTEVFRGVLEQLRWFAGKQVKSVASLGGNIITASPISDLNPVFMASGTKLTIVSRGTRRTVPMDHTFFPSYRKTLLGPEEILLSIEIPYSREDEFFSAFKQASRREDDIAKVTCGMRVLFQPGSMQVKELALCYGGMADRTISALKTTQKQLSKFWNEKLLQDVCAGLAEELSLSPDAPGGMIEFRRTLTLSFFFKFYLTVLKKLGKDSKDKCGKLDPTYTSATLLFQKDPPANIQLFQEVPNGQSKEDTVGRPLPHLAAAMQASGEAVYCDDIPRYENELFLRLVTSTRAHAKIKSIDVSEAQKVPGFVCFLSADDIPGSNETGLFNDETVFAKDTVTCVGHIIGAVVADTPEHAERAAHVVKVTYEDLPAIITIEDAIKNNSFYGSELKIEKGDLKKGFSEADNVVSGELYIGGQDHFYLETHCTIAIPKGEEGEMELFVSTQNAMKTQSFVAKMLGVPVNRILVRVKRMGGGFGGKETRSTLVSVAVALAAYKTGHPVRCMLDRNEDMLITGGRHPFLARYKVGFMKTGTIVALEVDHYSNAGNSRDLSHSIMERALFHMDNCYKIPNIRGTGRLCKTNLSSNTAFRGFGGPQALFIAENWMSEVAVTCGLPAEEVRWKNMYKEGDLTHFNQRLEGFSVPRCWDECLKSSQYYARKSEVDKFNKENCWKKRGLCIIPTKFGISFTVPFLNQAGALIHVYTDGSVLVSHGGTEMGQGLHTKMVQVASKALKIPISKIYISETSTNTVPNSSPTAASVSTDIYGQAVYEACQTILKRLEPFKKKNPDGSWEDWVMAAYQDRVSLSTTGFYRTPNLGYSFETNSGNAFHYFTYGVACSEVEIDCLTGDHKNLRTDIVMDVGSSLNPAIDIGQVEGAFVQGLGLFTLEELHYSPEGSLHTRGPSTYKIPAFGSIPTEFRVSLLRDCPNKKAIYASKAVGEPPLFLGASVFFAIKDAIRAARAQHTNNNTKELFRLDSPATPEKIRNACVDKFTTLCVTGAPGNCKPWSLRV

Compound: c1c[nH]cn1 [imidazole]
- Ki (β-Glc [1]; [9]): 530 µM

- IC50 (β-Glc (from almonds) [2]): 421.6 ± 0.94 µM
Compound: Cc1ccc(F)c(S(=O)(=O)NCCc2c[nH]cn2)c1 [I-e, N ^α-2-fluor-5-methylbenzenesulfonyl histamine]
- % of inhibition of β-Glc at 40 μM (β-Glc (from almonds) [2]; fixed compound concentration 40 μM): ≤ 25%

- IC50 (β-Glc (from almonds) [2]): 71.4 ± 1.02 µM
Compound: O=S(=O)(NCCc1c[nH]cn1)c1cc(F)c(F)c(F)c1 [I-g, N ^α-3,4,5-trifluorobenzenesulfonyl histamine]

Compound: O=S(=O)(NCCc1c[nH]cn1)c1ccc(F)cc1 [I-c, N ^α-4-fluorobenzenesulfonyl histamine]
- IC50 (β-Glc (from almonds) [2]): 65.1 ± 1.04 µM
- % inhibition of β-Glc at 65 μM (β-Glc (from almonds) [2]; tested at 65 μM): 49.94%
- Type of inhibition (Lineweaver–Burk plot) (β-Glc [3]; different concentrations of p-NPG and inhibitor): competitive
- Ki (β-Glc [3]; kinetic assays, p-NPG substrate): 8.11 µM
- inhibition at 3 µM (xanthine oxidase (XO)): 1.31%
- Inhibition of AChE [4]: no inhibition
- Inhibition of β-Gal (β-galactosidase (β-Gal) [5]): no inhibition
- Enzyme activity recovery (jump dilution) (β-Glc [6]; incubated at 10-fold IC50, 30 min, diluted 100-fold): 91%
- Enzyme–inhibitor interaction (reversibility) (β-Glc [6]; jump dilution): reversible

- IC50 (β-Glc (from almonds) [2]): 244.2 ± 1.09 µM
Compound: O=S(=O)(NCCc1c[nH]cn1)c1ccc(F)cc1Cl [I-f, N ^α-2-Chloro-4-fluorobenzenesulfonyl histamine]

Compound: OC[C@H]1NC[C@H](O)[C@@H](O)[C@H]1O [galacto-DNJ]
- IC50 (β-galactosidase (β-Gal) [7]): 90 µM

- IC50 (β-Glc (from almonds) [2]): 102 ± 1.05 µM
Compound: O=S(=O)(NCCc1c[nH]cn1)c1c(F)c(F)c(F)c(F)c1F [I-i, N ^α-pentafluorobenzenesulfonyl histamine]

- IC50 (β-Glc (from almonds) [2]): 197 µM
Compound: O=S(=O)(NCCc1c[nH]cn1)c1ccccc1 [I-a, N ^α-benzenesulfonyl histamine]

- IC50 (β-Glc (from almonds) [2]): 72.7 ± 1.05 µM
Compound: O=S(=O)(NCCc1c[nH]cn1)c1ccc(F)cc1C(F)(F)F [I-h, N ^α-2-(trifluoromethyl)-4-fluorobenzenesulfonyl histamine]

- IC50 (β-Glc (from almonds) [2]): > 1000 µM
Compound: NCCc1c[nH]cn1 [histamine]
- Ki (β-Glc [1]; [9]): 2100 µM

- IC50 (β-Glc (from almonds) [2]): 79.5 ± 1.05 µM
Compound: O=S(=O)(NCCc1c[nH]cn1)c1ccc(C(F)(F)F)cc1 [I-d, N ^α-4-(trifluoromethyl)benzenesulfonyl histamine]

- IC50 (β-Glc (from almonds) [2]): 65.2 ± 1.04 µM
Compound: OC[C@H]1NC[C@H](O)[C@@H](O)[C@@H]1O [1-DNJ, 1-deoxynojirimycin, reference compound]
- Ki (β-Glc [1]; measured in similar conditions, read-out: Ki (β-Glc), reference compound): 47 µM
- IC50 (β-Glc (from almonds) [8]; read-out: IC50 (β-Glc inhibition), reported value for reference inhibitor): 81 µM

- IC50 (β-Glc (from almonds) [2]): 250 ± 1.03 µM
Compound: Cc1ccc(S(=O)(=O)NCCc2c[nH]cn2)cc1 [I-b, N ^α-p-toluenesulfonyl histamine]

Compound: O=S(=O)(NCCc1cn(S(=O)(=O)c2ccccc2)cn1)c1ccccc1 [II-a, N ^α,N^τ-di-benzenesulfonyl histamine]
- IC50 (β-Glc (from almonds) [8]; read-out: IC50 (β-Glc inhibition), reported value): 250 µM

- IC50 (β-Glc (from almonds) [2]): 95.5 ± 1.02 µM
Compound: COc1ccc(S(=O)(=O)NCCc2c[nH]cn2)cc1F [I-j, N ^α-3-fluoro-4-methoxybenzenesulfonyl histamine]
